Data set [1] concerns the target RXR alpha/PPAR gamma (Homo sapiens) (UniProt P37231+P19793). Description: Agonist activity at PPARgamma/RXRalpha expressed in […] Cos1 cells after 18 hrs by SEAP reporter gene assay. It is filed as functional, cell-based.
The subject of data set [2] is Mus musculus. Description: Downregulation of G6p mRNA expression in KK-Ay mouse liver at 10 mg/kg/day, po administered for 14 days by RT-PCR analysis. It is filed as functional, organism-based.
In data set [3] the test system is Mus musculus. The data set can be described thus: Upregulation of Scd1 mRNA expression in KK-Ay mouse liver at 10 mg/kg/day, po administered for 14 days by RT-PCR analysis. It is filed as ADME, organism-based. The arrangement: route oral. The following applies: in vivo, 336 h.
Data set [4] concerns Mus musculus. Description: Upregulation of Slc2a1 mRNA expression in KK-Ay mouse liver at 10 mg/kg/day, po administered for 14 days by RT-PCR analysis. It is filed as functional, organism-based.
Data set [5] has as its system Mus musculus. The data set can be described thus: Upregulation of Irs2 mRNA expression in KK-Ay mouse liver at 10 mg/kg/day, po administered for 14 days by RT-PCR analysis. It is filed as functional, organism-based.
A further data set concerns Rattus norvegicus. The data set can be described thus: Toxicity in male Sprague-Dawley rat assessed as enlarged testes at 30 mg/kg/day, po for 28 days relative to vehicle-treated control. It is filed as organism-based, Testis. The arrangement: route oral. The following applies: in vivo, 672 h.
The subject of data set [6] is Mus musculus. The data set can be described thus: Toxicity in KK-Ay mouse assessed as increase in serum triglyceride level at 10 mg/kg/day, po administered for 14 days relative to vehicle-treated control. In kind it is organism-based. The arrangement: route oral. The following applies: in vivo, 336 h.
The test system of data set [7] is Mus musculus. Description: Antidiabetic activity in diabetic, obese KK-Ay mouse assessed as increase in adiponectin level at 10 mg/kg/day, po administered for 14 days by oral glucose tolerance test. In kind it is functional, organism-based.
Data set [8] concerns Mus musculus. The data set can be described thus: Toxicity in ICR mouse assessed as increase in liver weight at 30 mg/kg/day, po for 7 days relative to vehicle-treated control. It is filed as organism-based. Further details: route oral. The following applies: in vivo, 168 h.
Data set [9] concerns Mus musculus. Description: Antidiabetic activity in diabetic, obese KK-Ay mouse assessed as blood glucose level at 10 mg/kg/day, po administered for 14 days measured on day 3 after starting of dosing (reference value: 500 mg/dL). In kind it is functional.
In another data set the test system is Serum. The data set can be described thus: Drug level in ICR mouse serum at 30 mg/kg, po. The arrangement: dose 30 mg/kg, route oral. Particulars: in vivo, read-out: Drug uptake. It is filed as ADME, organism-based.
Data set [10] relates to Mus musculus. The data set can be described thus: Downregulation of Pck mRNA expression in KK-Ay mouse liver at 10 mg/kg/day, po administered for 14 days by RT-PCR analysis. It is filed as functional, organism-based.
The subject of data set [11] is Mus musculus. Description: Upregulation of Srebp1c mRNA expression in KK-Ay mouse liver at 10 mg/kg/day, po administered for 14 days by RT-PCR analysis. In kind it is functional, organism-based.
Data set [12] concerns Mus musculus. The data set can be described thus: Upregulation of Irs1 mRNA expression in KK-Ay mouse liver at 10 mg/kg/day, po administered for 14 days by RT-PCR analysis. It is filed as functional, organism-based.
The subject of data set [13] is Mus musculus. The data set can be described thus: Upregulation of Fasn mRNA expression in KK-Ay mouse liver at 10 mg/kg/day, po administered for 14 days by RT-PCR analysis. In kind it is ADME, organism-based. The arrangement: route oral. Particulars: in vivo, 336 h.
Data set [14] has as its system Mus musculus. The data set can be described thus: Upregulation of Slc2a2 mRNA expression in KK-Ay mouse liver at 10 mg/kg/day, po administered for 14 days by RT-PCR analysis. In kind it is functional, organism-based.
The subject of data set [15] is Mus musculus. Description: Toxicity in KK-Ay mouse assessed as increase in body weight at 10 mg/kg/day, po administered for 14 days relative to vehicle-treated control. It is filed as organism-based. Further details: route oral. The following applies: in vivo, 336 h.
Data set [16] addresses T1, Oxysterols receptor LXR-alpha (Homo sapiens) (UniProt Q13133).
T1 sequence (whole entry): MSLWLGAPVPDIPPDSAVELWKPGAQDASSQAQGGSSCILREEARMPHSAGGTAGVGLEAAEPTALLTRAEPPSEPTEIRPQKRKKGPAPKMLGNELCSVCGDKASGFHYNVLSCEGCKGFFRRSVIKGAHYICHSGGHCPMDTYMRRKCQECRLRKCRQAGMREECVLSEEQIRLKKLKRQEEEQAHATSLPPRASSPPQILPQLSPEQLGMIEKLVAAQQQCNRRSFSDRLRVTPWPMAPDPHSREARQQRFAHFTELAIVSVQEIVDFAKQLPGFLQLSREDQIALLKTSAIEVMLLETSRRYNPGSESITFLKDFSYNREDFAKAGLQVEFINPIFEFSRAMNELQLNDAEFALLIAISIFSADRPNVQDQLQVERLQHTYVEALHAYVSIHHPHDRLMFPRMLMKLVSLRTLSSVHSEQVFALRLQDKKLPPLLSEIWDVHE
Description: Agonist activity at LXRalpha expressed in […] Cos1 cells after 18 hrs by SEAP reporter gene assay. In kind it is functional, cell-based. For orientation: A reporter such as luciferase makes a cellular process visible.

The subject of data set [17] is Mus musculus. Description: Toxicity in KK-Ay mouse assessed as increase in liver weight at 10 mg/kg/day, po administered for 14 days relative to vehicle-treated control. It is filed as organism-based. The arrangement: route oral. The following applies: in vivo, 336 h.
For data set [18], the system named is Mus musculus. Description: Toxicity in ICR mouse assessed as increase in body weight at 30 mg/kg/day, po for 7 days relative to vehicle-treated control. In kind it is organism-based. Further details: route oral. The following applies: in vivo, 168 h.
The subject of data set [19] is Mus musculus. The data set can be described thus: Toxicity in ICR mouse assessed as increase in serum triglyceride level at 30 mg/kg/day, po for 7 days relative to vehicle-treated control. In kind it is organism-based. The arrangement: route oral. The following applies: in vivo, 168 h.
The target in data set [20] is T2, Peroxisome proliferator-activated receptor gamma (Homo sapiens) (UniProt P37231).
T2 sequence (whole entry): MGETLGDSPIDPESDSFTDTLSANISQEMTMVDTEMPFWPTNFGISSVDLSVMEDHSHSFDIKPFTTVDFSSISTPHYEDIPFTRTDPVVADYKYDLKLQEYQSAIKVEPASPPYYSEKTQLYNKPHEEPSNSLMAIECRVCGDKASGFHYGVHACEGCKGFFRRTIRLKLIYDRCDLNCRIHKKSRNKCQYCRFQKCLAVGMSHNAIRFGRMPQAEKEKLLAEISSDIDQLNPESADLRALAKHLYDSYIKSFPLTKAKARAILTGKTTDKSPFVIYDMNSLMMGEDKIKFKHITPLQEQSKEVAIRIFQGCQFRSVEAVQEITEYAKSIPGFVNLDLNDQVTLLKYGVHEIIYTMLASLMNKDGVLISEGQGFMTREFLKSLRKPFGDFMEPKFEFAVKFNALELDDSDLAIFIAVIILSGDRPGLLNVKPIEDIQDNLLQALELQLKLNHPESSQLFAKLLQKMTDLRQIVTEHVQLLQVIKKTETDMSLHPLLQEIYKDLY
The data set can be described thus: Agonist activity at PPARgamma expressed in […] Cos1 cells after 18 hrs by SEAP reporter gene assay. In kind it is functional, cell-based.

In data set [21] the test system is Mus musculus. Description: Toxicity in KK-Ay mouse assessed as increase in total cholesterol level at 10 mg/kg/day, po administered for 14 days relative to vehicle-treated control. In kind it is organism-based. Further details: route oral. The following applies: in vivo, 336 h.
Data set [22] has as its target Retinoic acid receptor RXR-alpha/oxysterols receptor LXR-alpha (Homo sapiens) (UniProt P19793+Q13133). Description: Agonist activity at LXRalpha/RXRalpha expressed in […] Cos1 cells after 18 hrs by SEAP reporter gene assay. It is filed as functional, cell-based.
Data set [23] addresses T3, Retinoic acid receptor RXR-alpha (Homo sapiens) (UniProt P19793).
T3 sequence (whole entry): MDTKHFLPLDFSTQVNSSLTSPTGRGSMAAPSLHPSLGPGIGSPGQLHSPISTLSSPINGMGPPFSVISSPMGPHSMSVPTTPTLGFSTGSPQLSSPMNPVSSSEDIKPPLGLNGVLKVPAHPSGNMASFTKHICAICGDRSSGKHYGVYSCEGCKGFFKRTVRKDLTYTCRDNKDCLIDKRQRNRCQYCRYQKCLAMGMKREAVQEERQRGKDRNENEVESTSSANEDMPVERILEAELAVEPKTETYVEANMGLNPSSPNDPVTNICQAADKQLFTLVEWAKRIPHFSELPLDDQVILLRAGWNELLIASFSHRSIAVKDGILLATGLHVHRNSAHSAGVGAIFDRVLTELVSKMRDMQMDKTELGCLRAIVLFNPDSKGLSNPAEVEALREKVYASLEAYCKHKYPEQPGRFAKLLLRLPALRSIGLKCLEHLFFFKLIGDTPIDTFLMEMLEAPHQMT
The data set can be described thus: Agonist activity at RXRalpha expressed in […] Cos1 cells after 18 hrs by SEAP reporter gene assay. It is filed as functional, cell-based.

Each structure is given as a SMILES string. Activity calls are given as the source filed them. The calls are words filed in the database; no cut-off is given here.

For the compound `CCN(c1ccc2c(c1)C(C)(C)CCC2(C)C)c1ccc(C(=O)O)cn1`, the outcome (in data set [1]; with Mus musculus [7]; in [16]; in data set [22]) was Active. Also, the result in the data set on Mus musculus [2], in the data set on Mus musculus [4], with Mus musculus [5], in the data set on Mus musculus [10], with Mus musculus [11] and with Mus musculus [12] was inactive. In addition, the result (in the data set on Mus musculus [14]; in data set [20]) was inactive. For the same compound, the Activity entry in the data set with Mus musculus [3] was “Toxic”; in the data set with Rattus norvegicus, “Non-toxic”; with Mus musculus [6] it was “Toxic”; with Mus musculus [8] it was “Toxic”; in the data set with Mus musculus [9], 300 mg/dL; with Mus musculus [13] it was “Toxic”. Also, the Activity result with Mus musculus [15], with Mus musculus [17], in the data set on Mus musculus [18], in the data set with Mus musculus [19] and in the data set with Mus musculus [21] was “Toxic” throughout. In addition, the concentration in the data set with Serum turned out to be 1000 nM.
In the case of `Cc1cc2c(cc1-n1c(C)nc3cc(C(=O)O)ccc31)C(C)(C)CCC2(C)C`, the outcome in [1], in data set [23], in data set [16] and in [22] was Active. Moreover, the values for the Activity result in the data set on Rattus norvegicus, in the data set with Mus musculus [8] and in the data set with Mus musculus [18] were “Non-toxic”, “Toxic” and “Toxic”, respectively. Besides, the concentration in the data set on Serum turned out to be 1000 nM. Moreover, the outcome in data set [20] was inactive.
In the case of `Cc1cc2c(cc1-n1nnc3cc(C(=O)O)ccc31)C(C)(C)CCC2(C)C`, the concentration in the data set with Serum amounted to 1000 nM.

The record behind these values is ChEMBL document CHEMBL2146420, “RXR Partial Agonist CBt-PMN Exerts Therapeutic Effects on Type 2 Diabetes without the Side Effects of RXR Full Agonists” (ACS Med Chem Lett, 2012).
